Measured values as given in US20140004209A1, “AUTOPHAGY INDUCER AND INHIBITOR COMBINATION THERAPY FOR THE TREATMENT OF NEOPLASMS” (GENENTECH, INC., priority 2010, published 2014).
Entries after “also recorded” stand apart in the source; their conditions may differ. Where two headings read alike, the source gives them in different places.

Assays:
Format in all cases: cell-based, human
PC3 cells [1] = assay: Autophagy markers in PC3 cells (EM AVs, GFP-LC3, LC3-II/LC3-I, MDC, AO)
PC3 cells [2] = assay: Time-lapse microscopy of PC3 cells; conditions: 5% FBS
Experimental: Time-lapse video microscopy: Cells cultured in 24-well plates were imaged on an Olympus IX81 inverted microscope under environmental control (37° C. and 5% CO2) for 3 days. Imaging started 6 hours after the addition of the compounds and was taken at 1-hour intervals.

PC3 cells [3] = assay: Immunoblot of LAMP1, cathepsin D and p62 in PC3 cells
Text: Western blot analysis, immunofluorescence, 1HC and TUNEL assay: For Western blot analysis, total protein lysates were subjected to SDS-PAGE and transferred to nitrocellulose. Antibodies used were: anti-Akt1, anti-Akt2, anti-Akt3, anti-total-Akt, anti-p-Akt (Ser473), anti-p-Akt (Thr308), anti-p-S6 (Ser235/236), anti-PARP and anti-cleaved caspase-3 (Cell Signaling Technology); anti-p-PRAS40 (Invitrogen); anti-p27^Kip1 (Santa Cruz Biotechnology); anti-LC3 (Novus); anti-LAMP2 and anti-Cathepsin D (BD Biosciences); and anti-GAPDH (Advanced Immunochemical Inc.). […] Detection and quantification were performed using an Odyssey infrared scanner (LICOR) using the manufacturer's software. For immunofluorescence staining, cells were fixed in 3% paraformaldehyde and permeabilized with 0.01% digitonin in PBS, followed by a rabbit polyclonal anti-LC3 (Abgent) primary antibody detected with a cy3-conjugated anti-rabbit secondary antibody (Jackson Immunoresearch). For IHC, formalin-fixed, paraffin-embedded specimens were collected. 5-μm-thick paraffin-embedded sections were stained using an anti-Ki-67 (MIB-1, DakoCytomation) antibody with the Dako ARK kit (Dako Corporation). Tissues were counterstained with haematoxylin, dehydrated, and mounted. In all cases, antigen retrieval was performed with the Dako Target Retrieval Kit as per manufacturer's instructions. For TUNEL assay, formalin-fixed, paraffin-embedded sections were stained using an in situ cell death detection kit (POD; Roche Diagnostic) according to the manufacturer's instructions.
Because autophagy is a key function of the lysosomal compartment (Terman, A., B. Gustafsson, and U. T. Brunk, (2006), The lysosomal-mitochondrial axis theory of postmitotic aging and cell death. Chem Biol Interact. 163:29-37), we examined the lysosomal marker LAMPI and cathepsin D, the predominant lysosomal aspartic protease, by immunoblotting (FIG. 6, B and C). […] Cathepsin D is synthesized as a 43-kD preprocathepsin D that is cleaved cotranslationally and glycosylated to form a 46-kD procathepsin D, which is targeted to lysosomes yielding an intermediate that is further cleaved into a mature enzyme consisting of a 15-kD light chain and a 28-kD heavy chain.

PC3 cells [4] = assay: Mitochondrial superoxide (MitoSOX red) and cellular ROS in PC3 cells
Experimental: (B) PC3 cells treated as in A were stained with the Image-iT LIVE green ROS Detection kit and examined by fluorescence microscopy at 24 h. […] (C) Quantification of MitoSOX red and ROS green fluorescence intensities by flow cytometry at 24 h. Cells were treated as in A and B. Error bars represent SEM (n=3).
Because mitochondria are the primary intracellular source of superoxide (O2^−) generation, we analyzed O2^− production using MitoSOX red, an O2^− indicator that accumulates in the mitochondria as a function of membrane potential and fluoresces upon oxidation and subsequent binding to DNA.

PC3 cells [5] = assay: Microarray analysis of autophagy gene expression in PC3 cells; conditions: 1 or 5 μM for 6 or 24 hours, normalized to DMSO
Experimental: PC3 cells were induced to express shRNA to indicated Akt isoforms for 72 hours by Doxycycline, RNA was extracted from both Dox treated (Dox+) or untreated control (Dox−) cells. Microarray analysis was carried out using Affymetrix chips. Ratios of the expression levels of each autophagy gene from Dox+ and Dox− samples are shown. Data are mean values from 3 independent experiments.
RNA was extracted from the cells. Microarray analysis was carried out using Affymetrix chips. Expression levels of each autophagy gene are normalized to the DMSO controls. Data are mean values from 3 independent experiments.

**Q.** For O=c1[nH]c2ccccc2n1C1CCN(Cc2ccc(-c3nc4cc5nc[nH]c5cc4nc3-c3ccccc3)cc2)CC1 [II-4, 1-(1-(4-(7-phenyl-1H-imidazo[4,5-g]quinoxalin-6-yl)benzyl)piperidin-4-yl)-1H-benzo[d]imidazol-2 (3H)-one], which “AVO accumulation and apoptotic nuclei, II-4 and CQ (multispectral imaging flow cytometry)” value (PC3 cells [1]) is on record?
**A.** The value was “further increase in AVO accumulation in live cells and a concomitant increase in cells with condensed apoptotic nuclei”.

**Q.** And the “AVO accumulation, agent alone (multispectral imaging flow cytometry)” value (PC3 cells [1])?
**A.** Its value is “induced AVO accumulation without significant loss of viability”.

**Q.** What about the “AVs and nuclei by EM, Akti-1/2 and CQ” value (PC3 cells [1]; 5 μM Akti-1/2, 10 μM CQ, 0.5% FBS) of the same molecule?
**A.** The value was “accumulation of larger AVs and the appearance apoptotic nuclei”.

**Q.** What about the “accumulation of LC3-II” value (PC3 cells [1]; II-4 alone) of the same molecule?
**A.** The value was “significant accumulation of LC3-II within 24 h”.

**Q.** And the “accumulation of LC3-II, with CQ cotreatment” value (PC3 cells [1]; II-4 and 10 μM CQ)?
**A.** Its value is “further enhanced upon CQ cotreatment”.

**Q.** What about the “induction of AV accumulation / autophagy, agent alone” value (PC3 cells [1]; listed as Akti-1/2) of the same molecule?
**A.** Its value is “induced overt autophagy; also recorded: induced accumulation of AVs”.

**Q.** And the “cell morphology, II-4 and CQ” value (PC3 cells [2]; 10 μM II-4, 10 μM CQ)?
**A.** Its value is “cell shrinkage and plasma membrane rupture was observed within 48 h”.

**Q.** And the “cell division and morphology, agent alone” value (PC3 cells [2]; 10 μM, 3 d)?
**A.** The value was “near-complete inhibition of cell division without overt cell death”.

**Q.** And the “cathepsin D forms, II-4 and CQ” value (PC3 cells [3])?
**A.** The value was “the precursor forms of cathepsin D accumulated to even higher levels than either alone, whereas the mature 28-kD chain decreased gradually”.

**Q.** What about the p62 level (PC3 cells [3]) of the same molecule?
**A.** Its p62 level is “reduced the level of p62”.

**Q.** And the LAMP1 levels (PC3 cells [3]; agent alone)?
**A.** The LAMP1 levels was “increase in LAMP1 levels”.

**Q.** What about the p62 level (PC3 cells [3]; listed as Akti) of the same molecule?
**A.** Its p62 level is “caused a reduction in p62 levels”.

**Q.** And the “MitoSOX fluorescence, agent alone” value (PC3 cells [4])?
**A.** Its value is “increased MitoSOX fluorescence within 6 h”.

**Q.** And the “cellular ROS levels, II-4 (Akti-1/2) with CQ” value (PC3 cells [4])?
**A.** The value was “cotreatment with CQ caused a prolonged increase in ROS levels”.

**Q.** And the “cellular ROS signal, agent alone” value (PC3 cells [4])?
**A.** The value was “attenuated within 48 h”.

**Q.** And the “MitoSOX fluorescence, II-4 and CQ” value (PC3 cells [4]; 3 μM II-4, 10 μM CQ)?
**A.** Its value is “significant increase in fluorescence intensity”.

**Q.** And the “cellular ROS levels, II-4 (Akti-1/2) with CQ” value (PC3 cells [4]; listed as Akti-1/2)?
**A.** Its value is “caused a prolonged increase in vacuolar fluorescence”.

**Q.** And the “cellular ROS signal, agent alone” value (PC3 cells [4]; listed as Akti-1/2)?
**A.** The value was “first induced a homogeneous increase in ROS level, but by 48 hours the fluorescence became significantly reduced”.

**Q.** What about the autophagy gene expression (PC3 cells [5]) of the same molecule?
**A.** Its autophagy gene expression is “induce autophagy gene expression”.
